According to PubChem BioAssay AID256 (DTP/NCI, 2004):
Values joined by “and” are separate entries in the source; they are usually repeats but may differ in a detail not shown here. Equal entries are not always repeated. Inconclusive results and toxic doses are left out.

Test system: CD2F1 mice, L1210 leukemia ip, survival T/C
Experiment: NCI In Vivo Anticancer Drug Screen. Data for tumor model L1210 Leukemia (intraperitoneal) in CD2F1 (CDF1) mice
Settings: higher = longer survival
How it was run: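 Each value reflects a quotient of treated over vehicle control outcomes in mice with a transplanted tumor.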

[1] = endpoint: mean survival time, dose: 100.0 mg/kg/injection, schedule: Q01DX009 (ip), vehicle: saline with Tween-80
[2] = endpoint: mean survival time, dose: 200.0 mg/kg/injection, schedule: Q01DX009 (ip), vehicle: saline with Tween-80
[3] = endpoint: mean survival time, dose: 400.0 mg/kg/injection, schedule: Q01DX009 (ip), vehicle: saline with Tween-80
[4] = endpoint: mean survival time, dose: 100.0 mg/kg/injection, schedule: Q04DX003 (ip), vehicle: saline with Tween-80
[5] = endpoint: mean survival time, dose: 200.0 mg/kg/injection, schedule: Q04DX003 (ip), vehicle: saline with Tween-80
[6] = endpoint: mean survival time, dose: 400.0 mg/kg/injection, schedule: Q04DX003 (ip), vehicle: saline with Tween-80
[7] = endpoint: mean survival time, dose: 100.0 mg/kg/injection, schedule: Q01DX001 (ip), vehicle: saline with Tween-80
[8] = endpoint: mean survival time, dose: 200.0 mg/kg/injection, schedule: Q01DX001 (ip), vehicle: saline with Tween-80
[9] = endpoint: mean survival time, dose: 400.0 mg/kg/injection, schedule: Q01DX001 (ip), vehicle: saline with Tween-80
[10] = endpoint: mean survival time, dose: 50.0 mg/kg/injection, schedule: Q01DX001 (ip), vehicle: saline with Tween-80
[11] = endpoint: mean survival time, dose: 100.0 mg/kg/injection, schedule: Q04DX003 (ip), vehicle: saline
[12] = endpoint: mean survival time, dose: 200.0 mg/kg/injection, schedule: Q04DX003 (ip), vehicle: saline

Compound: CC(C)=NNS(=O)(=O)c1ccccc1
- T/C (endpoint: mean survival time, dose: 12.5 mg/kg/injection, schedule: Q01DX005 (ip), vehicle: Klucel (hydroxypropylcellulose) (HPC)): 88 % of control
- T/C (endpoint: mean survival time, dose: 25.0 mg/kg/injection, schedule: Q01DX005 (ip), vehicle: Klucel (hydroxypropylcellulose) (HPC)): 96 % of control
- T/C (endpoint: mean survival time, dose: 50.0 mg/kg/injection, schedule: Q01DX005 (ip), vehicle: Klucel (hydroxypropylcellulose) (HPC)): 96 % of control
- T/C (endpoint: mean survival time, dose: 100.0 mg/kg/injection, schedule: Q01DX005 (ip), vehicle: Klucel (hydroxypropylcellulose) (HPC)): 93 % of control

Compound: CC(=O)c1ccc2sc3ccccc3c2c1
- T/C [1]: 98 % of control
- T/C [2]: 93 % of control
- T/C [3]: 93 % of control

Compound: CC([NH-])CC[NH-].[Cl][Pt+2][Cl] (stereo not given)
- T/C (endpoint: mean survival time, dose: 6.25 mg/kg/injection, schedule: Q04DX003 (ip), vehicle: saline with Tween-80): 151 % of control

Compound: S=C1NCCO1
- T/C [1]: 100 % of control and 95 % of control
- T/C [4]: 95 % of control
- T/C [2]: 91 % of control and 97 % of control
- T/C [5]: 93 % of control
- T/C [3]: 112 % of control
- T/C [6]: 104 % of control

Compound: O=C1c2cccc([N+](=O)[O-])c2C(=O)c2c1cccc2[N+](=O)[O-]
- T/C [7]: 103 % of control
- T/C [8]: 102 % of control
- T/C [9]: 96 % of control

Compound: CCCCCCCCC(CCCCCC)CCCCCCCC
- T/C (endpoint: mean survival time, dose: 100.0 mg/kg/injection, schedule: Q01DX001 (ip), vehicle: saline): 96 % of control
- T/C (endpoint: mean survival time, dose: 200.0 mg/kg/injection, schedule: Q01DX001 (ip), vehicle: saline): 96 % of control
- T/C (endpoint: mean survival time, dose: 400.0 mg/kg/injection, schedule: Q01DX001 (ip), vehicle: saline): 97 % of control

Compound: C=C(c1cn(C(C)=O)c2ccccc12)c1cn(C(C)=O)c2ccccc12
- T/C [1]: 95 % of control
- T/C [2]: 96 % of control
- T/C [3]: 98 % of control

Compound: CCC1CCCCN1C (stereo not given)
- T/C [4]: 90 % of control

Compound: CCCCCCCCCCCCCCC(=O)Nc1ccccc1
- T/C (endpoint: mean survival time, dose: 12.5 mg/kg/injection, schedule: Q04DX002 (ip), vehicle: saline with Tween-80): 101 % of control
- T/C (endpoint: mean survival time, dose: 25.0 mg/kg/injection, schedule: Q04DX002 (ip), vehicle: saline with Tween-80): 96 % of control
- T/C (endpoint: mean survival time, dose: 50.0 mg/kg/injection, schedule: Q04DX002 (ip), vehicle: saline with Tween-80): 86 % of control
- T/C [8]: 89 % of control

Compound: NC(Cc1c[nH]c2ccccc12)C(=O)O (stereo not given)
- T/C [10]: 98 % of control
- T/C [7]: 98 % of control
- T/C [8]: 101 % of control

Compound: c1ccc(P(CCNCCP(c2ccccc2)c2ccccc2)c2ccccc2)cc1
- T/C (endpoint: median survival time, dose: 25.0 mg/kg/injection, schedule: Q01DX009 (ip), vehicle: saline with Tween-80): 101 % of control
- T/C (endpoint: median survival time, dose: 50.0 mg/kg/injection, schedule: Q01DX009 (ip), vehicle: saline with Tween-80): 103 % of control
- T/C (endpoint: median survival time, dose: 100.0 mg/kg/injection, schedule: Q01DX009 (ip), vehicle: saline with Tween-80): 103 % of control
- T/C (endpoint: median survival time, dose: 200.0 mg/kg/injection, schedule: Q01DX009 (ip), vehicle: saline with Tween-80): 101 % of control

Compound: COC(=O)CC(=O)C1(C)CC1
- T/C [11]: 90 % of control
- T/C [12]: 93 % of control
- T/C (endpoint: mean survival time, dose: 400.0 mg/kg/injection, schedule: Q04DX003 (ip), vehicle: saline): 96 % of control

Compound: CC(C)CC(Br)C(=O)NCC(=O)NC(Cc1ccccc1)C(=O)O (stereo not given)
- T/C [4]: 106 % of control
- T/C [5]: 97 % of control
- T/C [6]: 96 % of control

Compound: COc1ccncn1
- T/C (endpoint: mean survival time, dose: 100.0 mg/kg/injection, schedule: Q04DX002 (ip), vehicle: saline with Tween-80): 98 % of control
- T/C (endpoint: mean survival time, dose: 200.0 mg/kg/injection, schedule: Q04DX002 (ip), vehicle: saline with Tween-80): 95 % of control
- T/C (endpoint: mean survival time, dose: 400.0 mg/kg/injection, schedule: Q04DX002 (ip), vehicle: saline with Tween-80): 106 % of control

Compound: O=C(NCCO)c1cc2ccccc2o1
- T/C [7]: 93 % of control
- T/C [8]: 98 % of control
- T/C [9]: 90 % of control

Compound: C/C(=N\O)C(C)(O)C(C)(C)C (stereo not given)
- T/C [4]: 90 % of control
- T/C [5]: 98 % of control
- T/C [6]: 93 % of control

Compound: CC(=O)Nc1cccc(OCCOc2ccccc2[N+](=O)[O-])c1
- T/C (endpoint: mean survival time, dose: 100.0 mg/kg/injection, schedule: Q04DX002 (ip), vehicle: Klucel (hydroxypropylcellulose) (HPC)): 95 % of control
- T/C (endpoint: mean survival time, dose: 200.0 mg/kg/injection, schedule: Q04DX002 (ip), vehicle: Klucel (hydroxypropylcellulose) (HPC)): 107 % of control
- T/C (endpoint: mean survival time, dose: 400.0 mg/kg/injection, schedule: Q04DX002 (ip), vehicle: Klucel (hydroxypropylcellulose) (HPC)): 103 % of control

Compound: O=C1CN(CO)C(=O)N1CO
- T/C (endpoint: median survival time, dose: 25.0 mg/kg/injection, schedule: Q01DX009 (ip), vehicle: Klucel (hydroxypropylcellulose) (HPC)): 110 % of control
- T/C (endpoint: median survival time, dose: 50.0 mg/kg/injection, schedule: Q01DX009 (ip), vehicle: Klucel (hydroxypropylcellulose) (HPC)): 110 % of control
- T/C (endpoint: median survival time, dose: 100.0 mg/kg/injection, schedule: Q01DX009 (ip), vehicle: Klucel (hydroxypropylcellulose) (HPC)): 116 % of control
- T/C (endpoint: median survival time, dose: 200.0 mg/kg/injection, schedule: Q01DX009 (ip), vehicle: Klucel (hydroxypropylcellulose) (HPC)): 112 % of control
- T/C (endpoint: median survival time, dose: 400.0 mg/kg/injection, schedule: Q01DX009 (ip), vehicle: Klucel (hydroxypropylcellulose) (HPC)): 96 % of control

Compound: Cc1ccc(N=Cc2cc(Cl)ccc2O)cc1.Cc1ccc(N=Cc2cc(Cl)ccc2O)cc1.[Co]
- T/C (endpoint: mean survival time, dose: 25.0 mg/kg/injection, schedule: Q04DX003 (ip), vehicle: saline): 95 % of control and 104 % of control
- T/C (endpoint: mean survival time, dose: 50.0 mg/kg/injection, schedule: Q04DX003 (ip), vehicle: saline): 98 % of control and 108 % of control
- T/C [11]: 124 % of control and 89 % of control

Compound: COc1ccc(CCNc2ccc(OC)c(OC)c2)cc1OC
- T/C (endpoint: mean survival time, dose: 12.5 mg/kg/injection, schedule: Q01DX009 (ip), vehicle: water): 100 % of control
- T/C (endpoint: mean survival time, dose: 25.0 mg/kg/injection, schedule: Q01DX009 (ip), vehicle: water): 96 % of control
- T/C (endpoint: mean survival time, dose: 50.0 mg/kg/injection, schedule: Q01DX009 (ip), vehicle: water): 100 % of control
- T/C (endpoint: mean survival time, dose: 100.0 mg/kg/injection, schedule: Q01DX009 (ip), vehicle: water): 96 % of control
- T/C (endpoint: mean survival time, dose: 200.0 mg/kg/injection, schedule: Q01DX009 (ip), vehicle: water): 91 % of control

Compound: CC1=C(C)C(=O)C(SC2CC(=O)OC2=O)=C(C)C1=O (stereo not given)
- T/C (endpoint: mean survival time, dose: 25.0 mg/kg/injection, schedule: Q01DX001 (ip), vehicle: saline with Tween-80): 108 % of control
- T/C [10]: 96 % of control
- T/C [7]: 104 % of control

Compound: O=C1CCCC(=O)N1CCCCCCN1C(=O)CCCC1=O
- T/C [1]: 94 % of control
- T/C [4]: 100 % of control
- T/C [2]: 108 % of control
- T/C [5]: 101 % of control
- T/C [6]: 101 % of control

Compound: CN(C)CCC(=O)C(=Cc1ccc(O)cc1)C(=O)CCN(C)C
- T/C (endpoint: median survival time, dose: 12.5 mg/kg/injection, schedule: Q01DX009 (ip), vehicle: saline): 104 % of control
- T/C (endpoint: median survival time, dose: 25.0 mg/kg/injection, schedule: Q01DX009 (ip), vehicle: saline): 101 % of control
- T/C (endpoint: median survival time, dose: 50.0 mg/kg/injection, schedule: Q01DX009 (ip), vehicle: saline): 100 % of control
- T/C (endpoint: median survival time, dose: 100.0 mg/kg/injection, schedule: Q01DX009 (ip), vehicle: saline): 97 % of control
- T/C (endpoint: median survival time, dose: 200.0 mg/kg/injection, schedule: Q01DX009 (ip), vehicle: saline): 97 % of control

Compound: Nc1[nH]c(=O)[nH]c(=O)c1N
- T/C (endpoint: mean survival time, dose: 50.0 mg/kg/injection, schedule: Q01DX009 (ip), vehicle: saline with Tween-80): 93 % of control
- T/C [1]: 93 % of control
- T/C (endpoint: mean survival time, dose: 100.0 mg/kg/injection, schedule: Q04DX002 (ip), vehicle: saline): 97 % of control
- T/C [4]: 108 % of control
- T/C [2]: 93 % of control
- T/C (endpoint: mean survival time, dose: 200.0 mg/kg/injection, schedule: Q04DX002 (ip), vehicle: saline): 97 % of control
- T/C [5]: 108 % of control

Compound: CC(C)C[CH2][Pb]([Cl])([CH2]CC(C)C)[CH2]CC(C)C
- T/C (endpoint: mean survival time, dose: 0.06 mg/kg/injection, schedule: Q01DX009 (ip), vehicle: saline): 97 % of control
- T/C (endpoint: mean survival time, dose: 0.12 mg/kg/injection, schedule: Q01DX009 (ip), vehicle: saline): 97 % of control
- T/C (endpoint: mean survival time, dose: 0.25 mg/kg/injection, schedule: Q01DX009 (ip), vehicle: saline): 97 % of control
- T/C (endpoint: mean survival time, dose: 0.5 mg/kg/injection, schedule: Q01DX009 (ip), vehicle: saline): 100 % of control
- T/C (endpoint: mean survival time, dose: 1.0 mg/kg/injection, schedule: Q01DX009 (ip), vehicle: saline): 100 % of control

Compound: Cc1ccc(S(=O)(=O)OC(c2ccc(C(OS(=O)(=O)c3ccc(C)cc3)(C(F)(F)F)C(F)(F)F)cc2)(C(F)(F)F)C(F)(F)F)cc1
- T/C [7]: 96 % of control
- T/C [8]: 95 % of control
- T/C [9]: 90 % of control

Compound: Nc1cc(Cl)nnc1Cl
- T/C (endpoint: mean survival time, dose: 50.0 mg/kg/injection, schedule: Q01DX009 (ip), vehicle: other): 97 % of control
- T/C (endpoint: mean survival time, dose: 100.0 mg/kg/injection, schedule: Q01DX009 (ip), vehicle: other): 103 % of control
- T/C [11]: 98 % of control
- T/C (endpoint: mean survival time, dose: 200.0 mg/kg/injection, schedule: Q01DX009 (ip), vehicle: other): 97 % of control
- T/C [12]: 101 % of control

Compound: CC1(C)N=C(N)N=C(N)N1c1cc(Cl)cc(CCNC(=O)Nc2ccc(S(=O)(=O)F)cc2)c1
- T/C [7]: 92 % of control
